According to patent US9957271B2, “Substituted bicyclic aza-heterocycles and analogues as sirtuin modulators” (GlaxoSmithKline, LLC, priority 2012, dated 2018):
Where two headings read alike, the source gives them in different places.

Molecular target: T1, SIRT1 (Homo sapiens, UniProt Q96EB6)
T1 sequence (Q96EB6 1-747): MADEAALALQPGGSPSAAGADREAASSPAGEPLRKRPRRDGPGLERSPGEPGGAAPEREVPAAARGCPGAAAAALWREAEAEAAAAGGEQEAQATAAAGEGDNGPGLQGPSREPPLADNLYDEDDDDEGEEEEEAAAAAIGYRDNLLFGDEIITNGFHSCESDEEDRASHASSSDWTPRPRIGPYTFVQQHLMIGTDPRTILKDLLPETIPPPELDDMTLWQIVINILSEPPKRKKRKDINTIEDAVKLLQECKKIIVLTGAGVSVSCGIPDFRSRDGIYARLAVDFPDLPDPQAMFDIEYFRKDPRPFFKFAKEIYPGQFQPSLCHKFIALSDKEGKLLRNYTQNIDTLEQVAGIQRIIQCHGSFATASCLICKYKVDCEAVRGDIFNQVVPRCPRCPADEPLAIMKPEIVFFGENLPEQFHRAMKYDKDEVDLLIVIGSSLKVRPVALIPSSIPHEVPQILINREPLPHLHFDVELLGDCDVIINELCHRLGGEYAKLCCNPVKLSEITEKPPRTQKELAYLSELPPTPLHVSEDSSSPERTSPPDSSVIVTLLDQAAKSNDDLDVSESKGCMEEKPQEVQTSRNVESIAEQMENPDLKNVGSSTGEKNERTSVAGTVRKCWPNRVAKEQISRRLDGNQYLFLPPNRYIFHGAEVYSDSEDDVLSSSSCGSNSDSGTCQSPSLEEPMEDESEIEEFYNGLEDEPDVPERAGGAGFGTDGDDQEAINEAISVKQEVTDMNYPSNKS
Assay: TAMRA based mass spectrometry assay of SIRT1 activity
Type: biochemical
Conditions: for Emax: read-out: TAMRA % Fold Act
In short: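 Recombinant N-terminal His-tagged human SIRT1 (10 nM, E. coli) incubated 25 min at 25 °C with 0.5 μM 5TMR-labelled p53-derived acetyl-peptide and 120 μM βNAD+ in Tris-acetate pH 8 buffer with DTT and 0.05% BSA, compound at varying concentrations. Stopped with formic acid; deacetylated peptide or OAADPR measured by mass spectrometry relative to DMSO controls.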

[1] = TAMRA peptide substrate, concentration giving 150% activation of SIRT1
[2] = TAMRA peptide substrate, percent maximum fold activation
[3] = concentration of test compound giving 150% activation of SIRT1, TAMRA peptide substrate
[4] = percent maximum fold activation of SIRT1, TAMRA peptide substrate
[5] = TAMRA assay, concentration giving 150% activation of SIRT1
[6] = TAMRA assay, percent maximum fold activation

Row | Compound | TAMRA EC1.5 (μM) [5] | Emax [6] | also measured
1 | Cc1cc(C)nc(NC(=O)c2cnc3ccc(N4CC[C@@H](F)C4)nn23)c1 [Compound 491] | – | – | TAMRA EC1.5 [1]: B (EC1.5 1-25 μM); Emax [2]: < 350%
2 | Cc1cc(-c2ccccc2C(F)(F)F)nn2c(C(=O)Nc3ccncc3)cnc12 [Compound 193, 8-methyl-N-(pyridin-4-yl)-6-(2-(trifluoromethyl)phenyl)imidazo[1,2-b]pyridazine-3-carboxamide] | – | – | TAMRA EC1.5 (μM) [3]: A (EC1.5<1 μM); Emax [4]: ≥ 350%
3 | Cc1cc(C)nc(NC(=O)c2cnc3ccc(N4CCCC(C(F)(F)F)C4)nn23)c1 (stereo not shown) [Compound 579] | – | – | TAMRA EC1.5 [1]: B (EC1.5 1-25 μM); Emax [2]: < 350%
4 | COc1nccc(NC(=O)c2c(C)nc3c(C)cc(-c4ccccc4C(F)(F)F)nn23)n1 [Compound 543] | – | – | TAMRA EC1.5 [1]: A (EC1.5<1 μM); Emax [2]: ≥ 350%
5 | Cc1nn2ccc(-c3ccccc3C(F)(F)F)nc2c1C(=O)Nc1ccccn1 [Compound 548] | – | – | TAMRA EC1.5 [1]: A (EC1.5<1 μM); Emax [2]: ≥ 350%
6 | Cc1cncc(NC(=O)c2cnc3ccc(-c4ccccc4C(F)(F)F)nn23)c1 [Compound 97] | – | – | TAMRA EC1.5 (μM) [3]: B (EC1.5 1-25 μM); Emax [4]: ≥ 350%
7 | O=C(Nc1nc(CN2CCOCC2)cs1)c1cnc2ccc(-c3cc(F)ccc3F)nn12 [Compound 31] | – | – | TAMRA EC1.5 (μM) [3]: B (EC1.5 1-25 μM); Emax [4]: < 350%
8 | Cc1nc(C(=O)Nc2cnn3ccc(-c4ccccc4C(F)(F)F)nc23)c(C)s1 [Compound 526] | – | – | TAMRA EC1.5 [1]: A (EC1.5<1 μM); Emax [2]: ≥ 350%
9 | CCOc1ccc(NC(=O)c2c(C)nc3ccc(-c4ccccc4F)nn23)nn1 [Compound 741] | B (EC1.5 1-25 μM) | < 350% | –
10 | O=C(Nc1cccc(N2CCOCC2)n1)c1cnc2ccc(-c3ccccc3C(F)F)nn12 [Compound 36] | – | – | TAMRA EC1.5 (μM) [3]: A (EC1.5<1 μM); Emax [4]: ≥ 350%
11 | O=C(Nc1cnccn1)c1cnc2ccc(-c3ccccc3OC(F)(F)F)nn12 [Compound 362] | A (EC1.5<1 μM) | ≥ 350% | –
12 | Cc1cc2ncc(NC(=O)c3cccc(N4CCOCC4)n3)n2nc1-c1ccccc1C(F)(F)F [Compound 435] | – | – | TAMRA EC1.5 [1]: A (EC1.5<1 μM); Emax [2]: ≥ 350%
13 | Cc1nn2ccc(-c3ccccc3C(F)(F)F)nc2c1NC(=O)c1ccccn1 [Compound 567, N-(2-methyl-5-(2-(trifluoromethyl)phenyl)pyrazolo[1,5-a]pyrimidin-3-yl)picolinamide] | – | – | TAMRA EC1.5 [1]: B (EC1.5 1-25 μM); Emax [2]: < 350%
14 | Cc1nc2ccc(-c3ccccc3Cl)nn2c1NC(=O)c1nccs1 [Compound 353] | B (EC1.5 1-25 μM) | < 350% | –
15 | COc1cncnc1NC(=O)c1c(C)nc2ccc(-c3ccccc3C(F)(F)F)nn12 [Compound 670] | A (EC1.5<1 μM) | ≥ 350% | –
16 | Cc1cc(NC(=O)c2c(C)nc3c(C)cc(-c4ccccc4C(F)(F)F)nn23)cc(C)n1 [Compound 432] | – | – | TAMRA EC1.5 [1]: A (EC1.5<1 μM); Emax [2]: ≥ 350%
17 | Cc1cc(-c2ccccc2C(F)(F)F)nn2c(C(=O)Nc3cccc(CN4CCOCC4)n3)cnc12 [Compound 195] | – | – | TAMRA EC1.5 (μM) [3]: A (EC1.5<1 μM); Emax [4]: ≥ 350%
18 | O=C(Nc1cccc(N2CCCC2)n1)c1cnc2ccc(-c3ccccc3C(F)(F)F)nn12 [Compound 22] | – | – | TAMRA EC1.5 (μM) [3]: A (EC1.5<1 μM); Emax [4]: ≥ 350%
19 | O=C(Nc1ccccn1)c1cnc2ccc(-c3ccccc3Cl)nn12 [Compound 117] | – | – | TAMRA EC1.5 (μM) [3]: B (EC1.5 1-25 μM); Emax [4]: < 350%
20 | Cc1cccc(NC(=O)c2c(O)nc3ccc(-c4ccccc4C(F)(F)F)nn23)n1 [Compound 343] | C (EC1.5>25 μM) | < 350% | –
21 | Cc1nc2ccc(-c3ccccc3C(F)(F)F)nn2c1C(=O)Nc1ccnn1C [Compound 675] | C (EC1.5>25 μM) | < 350% | –
22 | O=C(Nc1cnn2ccc(-c3ccccc3OC(F)(F)F)nc12)c1nc2c(s1)CCCC2 [Compound 780] | A (EC1.5<1 μM) | ≥ 350% | –
23 | Cc1cc(NC(=O)c2cnn3ccc(-c4ccccc4C(F)(F)F)nc23)nc(C)n1 [Compound 503] | – | – | TAMRA EC1.5 [1]: A (EC1.5<1 μM); Emax [2]: ≥ 350%
24 | Cc1cnc(C(=O)Nc2cnc3ccc(-c4ccccc4Cl)nn23)s1 [Compound 306] | B (EC1.5 1-25 μM) | ≥ 350% | –
25 | COc1ccc(NC(=O)c2c(C)nc3ccc(-c4cccc(C)c4)nn23)nn1 [Compound 759] | A (EC1.5<1 μM) | < 350% | –

Row | Compound | TAMRA EC1.5 (μM) [5] | Emax [6] | also measured
26 | O=C(Nc1ncc(F)cc1F)c1cnn2ccc(-c3ccccc3OC(F)(F)F)nc12 [Compound 690] | C (EC1.5>25 μM) | < 350% | –
27 | O=C(Nc1ccccn1)c1c(O)nc2ccc(-c3ccccc3C(F)(F)F)nn12 [Compound 324] | B (EC1.5 1-25 μM) | < 350% | –
28 | Cc1nc(C(=O)Nc2cnc3ccc(-c4ccccc4C#N)nn23)cs1 [Compound 333] | B (EC1.5 1-25 μM) | ≥ 350% | –
29 | Cc1ccc(NC(=O)c2cnc3ccc(-c4ccccc4C(F)(F)F)nn23)nn1 [Compound 276] | A (EC1.5<1 μM) | ≥ 350% | –
30 | O=C(Nc1ccncn1)c1cnc2ccc(-c3cccc(C(F)(F)F)c3)nn12 [Compound 18] | – | – | TAMRA EC1.5 (μM) [3]: B (EC1.5 1-25 μM); Emax [4]: < 350%
31 | Cc1nc(C(=O)Nc2c(C)nc3ccc(-c4ccccc4C(F)(F)F)nn23)c(C)s1 [Compound 379] | B (EC1.5 1-25 μM) | ≥ 350% | –
32 | O=C(Nc1cncc(OCC(O)CO)n1)c1c(O)nc2ccc(-c3ccccc3C(F)(F)F)nn12 (stereo not shown) [Compound 345] | B (EC1.5 1-25 μM) | ≥ 350% | –
33 | O=C(Nc1cccc(N2CCOCC2)n1)c1cnc2ccc(-c3ccccc3C(F)(F)F)nn12 [Compound 21] | – | – | TAMRA EC1.5 (μM) [3]: A (EC1.5<1 μM); Emax [4]: ≥ 350%
34 | O=C(Nc1ccnc(N2CCCC2)c1)c1cnc2ccc(-c3cncc(C(F)F)c3)nn12 [Compound 61] | – | – | TAMRA EC1.5 (μM) [3]: B (EC1.5 1-25 μM); Emax [4]: < 350%
35 | N#Cc1ccccc1-c1ccc2ncc(C(=O)Nc3ccnc(N4CCC4)c3)n2n1 [Compound 201] | B (EC1.5 1-25 μM) | ≥ 350% | –
36 | Cn1ccnc1C(=O)Nc1cnc2ccc(-c3ccccc3C(F)(F)F)nn12 [Compound 91] | – | – | TAMRA EC1.5 (μM) [3]: B (EC1.5 1-25 μM); Emax [4]: ≥ 350%
37 | O=C(Nc1cnc2ccc(-c3ccccc3OC(F)(F)F)nn12)c1cccc(N2CCC2)n1 [Compound 322] | A (EC1.5<1 μM) | ≥ 350% | –
38 | O=C(Nc1cc(O)ncn1)c1cnn2ccc(-c3ccccc3OC(F)(F)F)nc12 [Compound 711] | A (EC1.5<1 μM) | ≥ 350% | –
39 | Cc1nc2c(C)cc(-c3ccccc3C(F)(F)F)nn2c1C(=O)Nc1ccnc(C2CC2)n1 [Compound 732] | A (EC1.5<1 μM) | ≥ 350% | –
40 | O=C(Nc1cnccn1)c1cnc2ccc(-c3cccc(Cl)c3F)nn12 [Compound 157] | – | – | TAMRA EC1.5 (μM) [3]: B (EC1.5 1-25 μM); Emax [4]: < 350%
41 | Cc1cc(NC(=O)c2cnc3c(C)c(C)c(-c4ccccc4C(F)(F)F)nn23)cc(C)n1 [Compound 361] | A (EC1.5<1 μM) | ≥ 350% | –
42 | Cc1ccnc(NC(=O)c2cnc3ccc(-c4ccccc4OC[C@H](O)CO)nn23)c1 [Compound 811] | A (EC1.5<1 μM) | ≥ 350% | –
43 | O=C(Nc1ccccn1)c1cnc2ccc(-c3ccccc3OCC(O)CO)nn12 (stereo not shown) [Compound 368] | B (EC1.5 1-25 μM) | ≥ 350% | –
44 | O=C(Nc1cnc2ccc(N3CC[C@H](F)C3)nn12)c1ccccn1 [Compound 564] | – | – | TAMRA EC1.5 [1]: B (EC1.5 1-25 μM); Emax [2]: < 350%
45 | Cc1cc(NC(=O)c2cnc3ccc(-c4ccccc4Cl)nn23)ccn1 [Compound 259] | B (EC1.5 1-25 μM) | ≥ 350% | –
46 | Cc1cc(-c2ccccc2C(F)(F)F)nn2c(C(=O)Nc3ccnc(O[C@H]4CCOC4)n3)cnc12 [Compound 601] | A (EC1.5<1 μM) | ≥ 350% | –
47 | O=C(Nc1cnc2ccc(-c3ccccc3C(F)(F)F)nn12)c1cccc(CN2CCOCC2)n1 [Compound 81] | – | – | TAMRA EC1.5 (μM) [3]: A (EC1.5<1 μM); Emax [4]: ≥ 350%
48 | CN(C)[C@H]1CCN(c2ccc3ncc(C(=O)Nc4cccc(N5CCOCC5)n4)n3n2)C1 [Compound 510] | – | – | TAMRA EC1.5 [1]: B (EC1.5 1-25 μM); Emax [2]: < 350%
49 | Cc1cccc(NC(=O)c2cnn3ccc(-c4ccccc4OC(F)(F)F)nc23)n1 [Compound 617] | A (EC1.5<1 μM) | ≥ 350% | –
50 | Cc1nc2ccc(-c3cccc(OC[C@H](O)CO)c3)nn2c1C(=O)Nc1ccncc1F [Compound 822] | A (EC1.5<1 μM) | < 350% | –
